Measurements taken from patent publication US20150141523A1, “COMPOUNDS FOR USE IN THE TREATMENT OF AUTOIMMUNE INFLAMMATORY DISEASE” (Venantius Limited, priority 2012, published 2015).

Experiments:
[1] = system: CD-1 mice; test: Methylated bovine serum albumin (mBSA) delayed-type hypersensitivity mouse paw swelling; format: in vivo; settings: 10 mg/kg i.p.; mBSA challenge alone 107%
Experimental: CD-1 mice (25-35 gms) were anaesthetised with halothane and immunised intradermal (i.d.) with mBSA/Freunds complete adjuvant containing Mycobacterium butyricum (FCA(B)) emulsion at four sites (62.5 μg/25 μl at each site) on the shaved chest on day 1. The mBSA/FCA(B) is prepared by emulsifying equal volumes of mBSA and FCA(B) solutions (the mBSA solution was first prepared in sterile isotonic saline at a concentration of 5 mg/mL). On days 8 and 9, mice were dosed intraperitoneal (i.p.) with either 1% carboxymethylcellulose (CMC), CycA or a novel compound in 1% CMC. Two hours after the second i.p. dose (day 9), anaesthetised mice were challenged, by injecting mBSA in saline subcutaneous (s.c.) in the dorsal surface of the right hind paw and s.c. in the left hind paw with saline alone (20 μl each injection). 24 hours later, mice were sacrificed by cervical dislocation, and the swelling of each paw was measured in triplicate with a plethysmometer.
Paw swelling (% difference)={mBSA injected paw volume (mls)}−{saline injected paw volume (mls)}×100%
Saline Injected Paw Volume (mls)

[2] = system: Balb/C mice; test: Oxazolone contact hypersensitivity (CHS) mouse ear swelling; format: in vivo; settings: P>0.05
Experimental: Female Balb/C mice (30-40 gms) were sensitised on day 0 with 20 μl of 2% oxazolone in acetone on each ear (10 μl on the inner and outer aspects of both ears). All mice were challenged on day 5 with 20 μl of 2% oxazolone in acetone only on the right ear; again, 10 μl on both the inner and outer aspects of the ear. Immediately following this, the mice were treated with test compound. The test compound was administered in exactly the same way as the oxazolone, with 10 μl on each side of the right ear. […] For the […] group, acetone was administered. All animals were killed 24 hrs later and the percentage increase in ear swelling was calculated. This was done in two ways. The thickness of the unchallenged left ear and the challenged right ear were measured using a micrometer caliper (μm). The increase in weight of both ears was also measured using a 5 mm biopsy punch (mgs). The percentage increase in oedema was then calculated for both weight and thickness by expressing the difference between the unchallenged left ear and the challenged right ear as a percentage of the left ear control.

[3] = system: β-hexosaminidase release from RBL-2H3 cells; settings: RBL-2H3 cells stimulated by calcium ionophore A23187; Bioorg. Med. Chem. Lett. 19(20), 2009; cited from earlier work

SMILES | mBSA paw swelling [1] [%] | effect on oxazolone mouse ear swelling [2] | inhibition of β-hexosaminidase release [3]
O[C@@H]1c2ccccc2C[C@]1(Cc1ccccc1)C1=Cc2ccccc2C1 (mixture of isomers) [Compound 5, (R,S and SR)2-Benzyl-2,3-dihydro-1H,1′H-2,2′-biinden-1-ol] | 72 | no significant effect | dose-dependant inhibition
O[C@H]1c2ccccc2C[C@]1(Cc1ccccc1)C1=Cc2ccccc2C1 (mixture of isomers) [Compound 6, (S,S and RR)2-Benzyl-2,3-dihydro-1H,1′H-2,2′-biinden-1-ol] | 71 | no significant effect | 
